Laboratory results from US12059408B2, “Treatment of cognitive impairment associated with schizophrenia” (Boehringer Ingelheim International GmbH, priority 2020, dated 2024).

Experiments:
[1] = tested on: CSF glycine; assay: Proof of clinical mechanism trial in healthy volunteers; type: in vivo, human; conditions: 10 mg dose
[2] = tested on: patients with mild to moderate dementia due to AD; assay: AD trial: safety (AEs, laboratory tests); type: in vivo, human; conditions: 25 mg treatment group
Description: This was a 12-week, multi-centre, multi-national, randomised, double-blind, double-dummy, placebo-controlled, parallel-group trial in patients with mild to moderate dementia due to AD.
(§1) The TS included all patients who were randomised and were treated with ≥1 dose of trial medication. Patients in the TS were analysed according to the actual trial medication they received at randomisation. The TS was used for analyses of safety, demographics, and baseline characteristics.
Safety assessments included the frequency of AEs, recording of vital signs, ECG measurements, standard laboratory tests, physical examination, and C-SSRS questionnaires.

[3] = tested on: patients with schizophrenia; assay: Phase II CIAS trial: cognition by MCCB, compound I add-on to antipsychotics vs placebo; type: in vivo, human; set-up: Change from baseline in MCCB overall composite score at Week 12, adjusted mean / Change from baseline in MCCB overall composite score at Week 12, comparison vs. placebo, adjusted mean: scale not given here; conditions: for Change from baseline in MCCB overall composite score at Week 12, adjusted mean: 12 weeks; for Change from baseline in MCCB overall composite score at Week 12, adjusted mean / Change from baseline in MCCB overall composite score at Week 12, comparison vs. placebo, adjusted mean: MMRM; for Change from baseline in MCCB overall composite score at Week 12, adjusted mean / Change from baseline in MCCB overall composite score at Week 12, comparison vs. placebo, adjusted mean / Proportion of responders, change from baseline in MCCB overall composite score at Week 12 / Responders, comparison vs. placebo, odds ratio: FAS; for Responders, comparison vs. placebo, odds ratio: logistic regression
Description: This trial was designed to investigate whether compound I as an add-on therapy to antipsychotics (except clozapine) can improve cognitive symptoms in patients with schizophrenia.
The primary endpoint was cognition assessed using the Measurement and Treatment Research to Improve Cognition in Schizophrenia (MATRICS) consensus cognitive battery (MCCB).
• 1) Men or women who are 18-50 years (inclusive) of age at time of consent with established schizophrenia (as per DSM-5) with the following clinical features: • Outpatient, with no hospitalization for worsening of schizophrenia within 3 months (hospitalization for social management and/or day hospital programs within this time are acceptable) prior to randomization • Medically stable over the prior 4 weeks and psychiatrically stable without symptom exacerbation within 3 months prior to randomization • patients who have no more than a “moderate severe” rating on the Positive and Negative Symptom Scale (PANSS) positive items P1, P3-P7 (item score≤5) and no more than a “moderate” rating on the PANSS positive item P2 (item score≤4) • 2) Current antipsychotic and concomitant psychotropic medications as assessed at Visit 1 must meet the criteria below: • a. patients may have up to 2 antipsychotics (typical and/or atypical) • b. patients must be maintained on current typical and/or atypical antipsychotics other than Clozapine and on current dose for at least 4 weeks prior to randomization and/or maintained on current long acting injectable antipsychotics and current dose for at least 3 months prior to randomization • c. patients must be maintained on current concomitant psychotropic medications, anticholinergics, antiepileptics and/or lithium for at least 3 months prior to randomization and on current dose for at least 4 weeks prior to randomization.
Patients eligible for the trial were randomly assigned, in a 1:1:1:1:2 ratio to either • 2 mg compound I • 5 mg compound I • 10 mg compound I • 25 mg compound I • Placebo
An MCPMod approach combined with MMRM was used to establish the proof of concept in this trial.
The null hypothesis was that there was a flat dose-response pattern across placebo and any dose of compound I within the tested dose range on the mean change in the MCCB overall composite score from baseline to Week 12. The alternative hypothesis was that there was a non-flat dose-response pattern indicating a benefit of compound I versus placebo.
Patients in the FAS were analysed according to the ITT principle, i.e. according to their randomised trial medication. The FAS was used for analyses of efficacy.
The primary endpoint of this trial was the change from baseline in cognitive function as measured by the MCCB overall composite score after 12 weeks of treatment. The primary efficacy analysis was based on the full analysis set (FAS).
Model includes fixed, categorical factors of planned treatment, analysis visit, and planned treatment by analysis visit interaction, as well as the continuous fixed covariate of baseline value and baseline value by analysis visit interaction. Subject is treated as random effect. Unstructured covariance structure was used to fit the mixed model. Kenward-Roger was used to model degrees of freedom.

[4] = tested on: patients with schizophrenia; assay: Phase II CIAS trial: safety (AEs, laboratory tests, PANSS, C-SSRS)
Description: This was a 12-week, multi-centre, multi-national, randomised, double-blind, double-dummy, placebo-controlled, parallel-group trial in patients with clinically stable schizophrenia.
as §1
Safety was assessed based on the frequency of AEs, recording of vital signs, ECG measurements, standard laboratory tests, physical examination, neurological examination, as well as PANSS and C-SSRS questionnaires.

C[C@@H](Oc1ccc(S(C)(=O)=O)cc1C(=O)N1C[C@@H]2C[C@]2(c2cc(C(F)(F)F)on2)C1)C(F)(F)F [compound I, [5-(methylsulfonyl)-2-{[(2R)-1,1,1-trifluoropropan-2-yl]oxy}phenyl] {(1R,5R)-1-[5-(trifluoromethyl)-1,2-oxazol-3-yl]-3-azabicyclo[3.1.0]hex-3-yl}methanone]
CSF glycine increase and CSF level criteria [1]: these criteria were met by the 10 mg dose
Decrease of haemoglobin levels, maximum effect [2]: 5.7%
Effect on cognition (dose considerations, Phase II trial) ([3]; 2 mg): ineffective
Change from baseline in MCCB overall composite score at Week 12, adjusted mean ([3]; 2 mg once daily oral): 1.784
Change from baseline in MCCB overall composite score at Week 12, comparison vs. placebo, adjusted mean ([3]; 2 mg once daily): 0.280
Effect on cognition (dose considerations, Phase II trial) ([3]; 5 mg): numerically improved cognition in Asian subpopulation
Change from baseline in MCCB overall composite score at Week 12, adjusted mean ([3]; 5 mg once daily oral): 1.641
Change from baseline in MCCB overall composite score at Week 12, comparison vs. placebo, adjusted mean ([3]; 5 mg once daily): 0.137
Effect on cognition (dose considerations, Phase II trial), primary endpoint ([3]; 10 mg): separated best from placebo
Change from baseline in MCCB neurocognitive composite score at Week 12 ([3]; 10 mg and 25 mg treatment groups compared with placebo): A larger change from baseline was observed
Change from baseline in MCCB overall composite score at Week 12, adjusted mean ([3]; 10 mg once daily oral): 3.486
Change from baseline in MCCB overall composite score at Week 12, comparison vs. placebo, adjusted mean ([3]; 10 mg once daily): 1.982
Effect on cognition (dose considerations, Phase II trial) ([3]; 25 mg): efficacy less consistent across analyses than the 10 mg dose
Change from baseline in MCCB overall composite score at Week 12, adjusted mean ([3]; 25 mg once daily oral): 3.234
Change from baseline in MCCB overall composite score at Week 12, comparison vs. placebo, adjusted mean ([3]; 25 mg once daily): 1.730
Cognitive performance compared to placebo, phase 2 clinical trial ([3]; certain doses, patients having schizophrenia): improves cognitive performance
Dose-response for change from baseline at Week 12 in MCCB overall composite T-score ([3]; doses of 2 to 25 mg): non-flat dose-response curve
Proportion of responders, change from baseline in MCCB overall composite score at Week 12 ([3]; responder ≥3, 2 mg): 46.3%
Responders, comparison vs. placebo, odds ratio ([3]; responder ≥3, 2 mg): 1.184
Proportion of responders, change from baseline in MCCB overall composite score at Week 12 ([3]; responder ≥3, 5 mg): 42.3%
Responders, comparison vs. placebo, odds ratio ([3]; responder ≥3, 5 mg): 1.006
Proportion of responders, change from baseline in MCCB overall composite score at Week 12 ([3]; responder ≥3, 10 mg): 61.5%
Responders, comparison vs. placebo, odds ratio ([3]; responder ≥3, 10 mg): 2.200
Proportion of responders, change from baseline in MCCB overall composite score at Week 12 ([3]; responder ≥3, 25 mg): 47.4%
Responders, comparison vs. placebo, odds ratio ([3]; responder ≥3, 25 mg): 1.241
Proportion of responders, change from baseline in MCCB overall composite score at Week 12 ([3]; responder ≥4, 2 mg): 40.3%
Responders, comparison vs. placebo, odds ratio ([3]; responder ≥4, 2 mg): 1.298
Proportion of responders, change from baseline in MCCB overall composite score at Week 12 ([3]; responder ≥4, 5 mg): 38.0%
Responders, comparison vs. placebo, odds ratio ([3]; responder ≥4, 5 mg): 1.180
Proportion of responders, change from baseline in MCCB overall composite score at Week 12 ([3]; responder ≥4, 10 mg): 52.6%
Responders, comparison vs. placebo, odds ratio ([3]; responder ≥4, 10 mg): 2.131
Proportion of responders, change from baseline in MCCB overall composite score at Week 12 ([3]; responder ≥4, 25 mg): 41.0%
Responders, comparison vs. placebo, odds ratio ([3]; responder ≥4, 25 mg): 1.338
Proportion of responders, change from baseline in MCCB overall composite score at Week 12 ([3]; responder ≥5, 2 mg): 35.8%
Responders, comparison vs. placebo, odds ratio ([3]; responder ≥5, 2 mg): 1.370
Proportion of responders, change from baseline in MCCB overall composite score at Week 12 ([3]; responder ≥5, 5 mg): 32.4%
Responders, comparison vs. placebo, odds ratio ([3]; responder ≥5, 5 mg): 1.176
Proportion of responders, change from baseline in MCCB overall composite score at Week 12 ([3]; responder ≥5, 10 mg): 44.9%
Responders, comparison vs. placebo, odds ratio ([3]; responder ≥5, 10 mg): 1.998
Proportion of responders, change from baseline in MCCB overall composite score at Week 12 ([3]; responder ≥5, 25 mg): 39.7%
Responders, comparison vs. placebo, odds ratio ([3]; responder ≥5, 25 mg): 1.619
Haemoglobin, mean change from baseline at last on-treatment value ([4]; 2 mg): -0.2 g/L
Haemoglobin, relative change from baseline ([4]; 2 mg): −0.1%
Haemoglobin, mean change from baseline at last on-treatment value ([4]; 5 mg): -0.7 g/L
Haemoglobin, relative change from baseline ([4]; 5 mg): −0.5%
Haemoglobin, mean change from baseline at last on-treatment value ([4]; 10 mg): 3.3 g/L
Haemoglobin, relative change from baseline ([4]; 10 mg): −2.3%
Haemoglobin, mean change from baseline at last on-treatment value ([4]; 25 mg): 4.5 g/L
Haemoglobin, relative change from baseline ([4]; 25 mg): −3.2%
Headache (most frequently observed AE) ([4]; all dose groups vs placebo): reported more frequently in all dose groups of compound I than placebo
Deaths ([4]; all treatment groups, 12 weeks): no deaths
Patients reporting on-treatment AEs ([4]; any treatment arm): Approximately 50%
Suicidal ideation and behaviour assessed using C-SSRS ([4]; compound I vs placebo): No significant differences
Worsening of schizophrenia assessed by PANSS total score ([4]; in vivo): no worsening of schizophrenia
